Reference: patent US20230285402A1, “Compositions and Methods of Modulating Short-Chain Dehydrogenase Activity” (BOARD OF REGENTS OF THE UNIVERSITY OF TEXAS SYSTEM, priority 2013, published 2023)

Assays:
FVB male mice = experiment: Dextran sodium sulfate (DSS) induced colitis, FVB male mice, SW033291 5 mg/kg IP twice daily; type: in vivo, mouse
C57BL/6J mice [1] = experiment: Competitive transplant of marrow from treated CD45.2 donor mice; type: in vivo, mouse; settings: donor 5 mg/kg IP daily for 3 doses; weeks 12 and 16
Protocol: On day 3 mice were sacrificed, marrow flushed and mixed at a 1:1 ratio with vehicle treated CD45.1 marrow. 2 million whole BM cells were injected into the tail vein of lethally irradiated CD45.1 mice and percent chimerism measured via flow cytometry at weeks 8, 12, 16.

C57BL/6J mice [2] = experiment: Liver regeneration after partial hepatectomy, C57BL/6J mice, SW033291 5 mg/kg IP; type: in vivo; settings: 5 mg/kg IP bid; one mouse each
A549 cells = experiment: Cellular toxicity by CellTiter-Glo; type: cell-based; settings: concentrations of up to 10 μM; 24 hours
Protocol: FIGS. 38(A-C) show assays of cellular toxicity on A549 cells at 24 hours of 15-PGDH inhibitors as assayed by CellTiter-Glo measurement.

NSG mice = experiment: Homing of CFSE labeled human umbilical cord blood buffy coat cells in NSG mice; settings: in vivo
Protocol: FIG. 93 illustrates a schema of an experiment in which immune deficient NSG mice are lethally irradiated (IR) and 12 hours later receive a transplant with CFSE dye labeled buffy coat cells from human umbilical cord blood (UCB), and number of transplanted cells that home and survive in the bone marrow of the recipient mice are then determined by FACS at 16 hours post-transplant. In different arms of the experiment mice are treated with vehicle or with SW033291. Drugs are administered following radiation, following the transplant, and again at 8 hours after the transplant.

FVB mice = experiment: Liver regeneration after partial hepatectomy, FVB mice, SW033291 5 mg/kg IP bid; type: in vivo, mouse
C57BL/6J female mice = experiment: Survival after acetaminophen (Tylenol) 600 mg/kg IP (LD50), C57BL/6J female mice, SW033291 5 mg/kg IP; type: in vivo, mouse; settings: for number of mice surviving: first dose immediately after Tylenol
C57BL/6J mice [3] = experiment: Survival of 11Gy irradiated C57BL/6J mice given marrow allograft, SW033291 5 mg/kg IP bid for 21 days, 3 mice per condition; type: in vivo, mouse
From the text: The experimental design is depicted in FIG. 50.
Under the conditions of the mouse colony during this study, control mice receiving 100,000-500,000 cells are all dead between days 4-13 of study. […] Such activity would be of particular utility in settings, such as transplantation with umbilical cord stem cells, in which donor cell numbers are limited.

SCF = experiment: Gene expression in bone marrow cells of treated mice: SCF; type: in vivo, mouse; settings: 10 mg/kg IP twice daily, 5 doses
Protocol: 2 hours following the last dose bone marrow is harvested and sorted into SKL marked cells that are hematopoietic stem cell enriched and into CD45(−) cells that are bone marrow stroma cells. RNA was extracted and gene expression determined relative to levels in mice injected with vehicle control.

bone marrow = experiment: Hematopoietic colonies from wild-type mouse bone marrow treated ex vivo; type: cell-based; settings: 0.5 μM, ex vivo on ice 2 hours
From the text: Treated marrow is again then plated into methylcellulose for counting of hematopoietic colonies.

Hepatocyte stability = type: in vitro ADME; settings: in words
Protocol: Time to inhibition refers to the time needed to inhibit the generation of NADH by 15-PGDH from the moment with drug is added into the reaction mix. Delta Tm refers to the shift in melting temperature of recombinant 15-PGDH in the presence of drug (with cofactor NADH also present). Concentration of Full Cell Line Reporter Induction refers to the concentration of drug that needs to be added to reporter cell line to achieve maximal induction of the 15-PGDH-luciferase gene fusion reporter cassette, as measured by luciferase assays. Hepatocyte stability refers to the half-life of compound in the presence of hepatocytes in culture. Toxicity refers to the concentration of compound needed to decrease cell numbers in a cell culture assay.

CCCC[S+]([O-])c1sc2nc(-c3cccs3)cc(-c3ccccc3)c2c1N (stereo not drawn) [SW033291, 2-(butylsulfinyl)-4-phenyl-6-(thiophen-2-yl)thieno[2,3-b]pyridin-3-amine]
change from baseline weight vs control (FVB male mice; 22 days of study): greater weight at all time points
Colon length (FVB male mice; Baseline): 8.4 ± 0.2 cm
Wt @ sacrifice (FVB male mice; Baseline): 25.9 ± 0.7 gm
Colon length (FVB male mice; Day 8): 6.6 ± 0.1 cm
Wt @ sacrifice (FVB male mice; Day 8): 26.4 ± 0.5 gm
Colon length (FVB male mice; Day 15): 7.5 ± 0.1 cm
Wt @ sacrifice (FVB male mice; Day 15): 25.2 ± 0.9 gm
Colon length (FVB male mice; Day 22): 8.6 ± 0.3 cm
Wt @ sacrifice (FVB male mice; Day 22): 28.2 ± 0.5 gm
share of ulcer formation prevented (FVB male mice; colonoscopy days 8, 11 and 15): two-thirds
reduction of length of ulcerated mucosa vs control (FVB male mice; day 15): 61%
average length of ulcerated mucosa (FVB male mice; day 15, N=6 mice, control 4.48): 1.74 mm per colon section
MEICS score vs control (FVB male mice; days 8, 11 and 15): significantly less colitis activity
percent blood chimerism of CD45.2 marked cells (C57BL/6J mice [1]): significantly increased
serum ALT values vs control (C57BL/6J mice [2]): lower
effect on CellTitre-Glo levels (A549 cells): No effect
increase of homed human cells in recipient mouse bone marrow (NSG mice): ~2 fold
increase in median S-phase (BrdU positive) cells (FVB mice; post-operative day 2): greater than 2 fold
greater liver weight than control (FVB mice; post-operative day 7, dosing from 1 hour before surgery): approximately 25%
number of mice surviving (C57BL/6J female mice; 0 hrs, 1 dose/daily, cohort of 6): 6
number of mice surviving (C57BL/6J female mice; 0 hrs, 2 dose/daily, cohort of 6): 6
Survival (number of mice) (C57BL/6J female mice; 0 hrs, bid from 3 hours prior to acetaminophen, 6 doses, cohort of 6): 6
Survival (number of mice) (C57BL/6J female mice; 0 hrs, bid from 48 hours prior to acetaminophen, 9 doses, cohort of 12): 12
number of mice surviving (C57BL/6J female mice; 16 hr, 1 dose/daily, cohort of 6): 6
number of mice surviving (C57BL/6J female mice; 16 hr, 2 dose/daily, cohort of 6): 6
Survival (number of mice) (C57BL/6J female mice; 16 hr, bid from 3 hours prior to acetaminophen, 6 doses, cohort of 6): 6
Survival (number of mice) (C57BL/6J female mice; 16 hr, bid from 48 hours prior to acetaminophen, 9 doses, cohort of 12): 12
number of mice surviving (C57BL/6J female mice; 24 hrs, 1 dose/daily, cohort of 6): 6
number of mice surviving (C57BL/6J female mice; 24 hrs, 2 dose/daily, cohort of 6): 6
Survival (number of mice) (C57BL/6J female mice; 24 hrs, bid from 3 hours prior to acetaminophen, 6 doses, cohort of 6): 5
Survival (number of mice) (C57BL/6J female mice; 24 hrs, bid from 48 hours prior to acetaminophen, 9 doses, cohort of 12): 12
Survival (number of mice) (C57BL/6J female mice; 40 hrs, bid from 48 hours prior to acetaminophen, 9 doses, cohort of 12): 11
number of mice surviving (C57BL/6J female mice; 48 hrs, 2 dose/daily, cohort of 6): 3
Survival (number of mice) (C57BL/6J female mice; 48 hrs, bid from 3 hours prior to acetaminophen, 6 doses, cohort of 6): 3
Survival (number of mice) (C57BL/6J female mice; 48 hrs, bid from 48 hours prior to acetaminophen, 9 doses, cohort of 12): 10
number of mice surviving (C57BL/6J female mice; 64 hrs, 2 dose/daily, cohort of 6): 3
Survival (number of mice) (C57BL/6J female mice; 64 hrs, bid from 3 hours prior to acetaminophen, 6 doses, cohort of 6): 3
Survival (number of mice) (C57BL/6J female mice; 64 hrs, bid from 48 hours prior to acetaminophen, 9 doses, cohort of 12): 10
number of mice surviving (C57BL/6J female mice; 72 hrs, 2 dose/daily, cohort of 6): 3
Survival (number of mice) (C57BL/6J female mice; 72 hrs, bid from 3 hours prior to acetaminophen, 6 doses, cohort of 6): 3
Survival (number of mice) (C57BL/6J female mice; 72 hrs, bid from 48 hours prior to acetaminophen, 9 doses, cohort of 12): 10
number of mice surviving (C57BL/6J female mice; 88 hr, 2 dose/daily, cohort of 6): 3
Survival (number of mice) (C57BL/6J female mice; 88 hr, bid from 3 hours prior to acetaminophen, 6 doses, cohort of 6): 3
Survival (number of mice) (C57BL/6J female mice; 88 hr, bid from 48 hours prior to acetaminophen, 9 doses, cohort of 12): 10
number of mice surviving (C57BL/6J female mice; 96 hr, 2 dose/daily, cohort of 6): 3
Survival (number of mice) (C57BL/6J female mice; 96 hr, bid from 3 hours prior to acetaminophen, 6 doses, cohort of 6): 3
Survival (number of mice) (C57BL/6J female mice; 96 hr, bid from 48 hours prior to acetaminophen, 9 doses, cohort of 12): 10
number of mice surviving (C57BL/6J female mice; 112 hr, 2 dose/daily, cohort of 6): 3
Survival (number of mice) (C57BL/6J female mice; 112 hr, bid from 3 hours prior to acetaminophen, 6 doses, cohort of 6): 3
Survival (number of mice) (C57BL/6J female mice; 112 hr, bid from 48 hours prior to acetaminophen, 9 doses, cohort of 12): 10
number of mice surviving (C57BL/6J female mice; 120 hr, 2 dose/daily, cohort of 6): 3
Survival (number of mice) (C57BL/6J female mice; 120 hr, bid from 3 hours prior to acetaminophen, 6 doses, cohort of 6): 3
Survival (number of mice) (C57BL/6J female mice; 120 hr, bid from 48 hours prior to acetaminophen, 9 doses, cohort of 12): 10
survival vs control mice (C57BL/6J female mice; dosing begun immediately following acetaminophen, once or twice daily, 0-120 hours): No difference
Mouse survival (number surviving) (C57BL/6J mice [3]; Day 0, 1 × 10^5 cells): 3
Mouse survival (number surviving) (C57BL/6J mice [3]; Day 0, 2 × 10^5 cells): 3
Mouse survival (number surviving) (C57BL/6J mice [3]; Day 0, 5 × 10^5 cells): 3
Mouse survival (number surviving) (C57BL/6J mice [3]; Day 1, 1 × 10^5 cells): 3
Mouse survival (number surviving) (C57BL/6J mice [3]; Day 1, 2 × 10^5 cells): 3
Mouse survival (number surviving) (C57BL/6J mice [3]; Day 1, 5 × 10^5 cells): 3
Mouse survival (number surviving) (C57BL/6J mice [3]; Day 2, 1 × 10^5 cells): 3
Mouse survival (number surviving) (C57BL/6J mice [3]; Day 2, 2 × 10^5 cells): 3
Mouse survival (number surviving) (C57BL/6J mice [3]; Day 2, 5 × 10^5 cells): 3
Mouse survival (number surviving) (C57BL/6J mice [3]; Day 3, 1 × 10^5 cells): 3
Mouse survival (number surviving) (C57BL/6J mice [3]; Day 3, 2 × 10^5 cells): 3
Mouse survival (number surviving) (C57BL/6J mice [3]; Day 3, 5 × 10^5 cells): 3
Mouse survival (number surviving) (C57BL/6J mice [3]; Day 4, 1 × 10^5 cells): 2
Mouse survival (number surviving) (C57BL/6J mice [3]; Day 4, 2 × 10^5 cells): 3
Mouse survival (number surviving) (C57BL/6J mice [3]; Day 4, 5 × 10^5 cells): 3
Mouse survival (number surviving) (C57BL/6J mice [3]; Day 5, 1 × 10^5 cells): 1
Mouse survival (number surviving) (C57BL/6J mice [3]; Day 5, 2 × 10^5 cells): 3
Mouse survival (number surviving) (C57BL/6J mice [3]; Day 5, 5 × 10^5 cells): 3
Mouse survival (number surviving) (C57BL/6J mice [3]; Day 6, 1 × 10^5 cells): 0
Mouse survival (number surviving) (C57BL/6J mice [3]; Day 6, 2 × 10^5 cells): 2
Mouse survival (number surviving) (C57BL/6J mice [3]; Day 6, 5 × 10^5 cells): 3
Mouse survival (number surviving) (C57BL/6J mice [3]; Day 7, 2 × 10^5 cells): 2
Mouse survival (number surviving) (C57BL/6J mice [3]; Day 7, 5 × 10^5 cells): 3
Mouse survival (number surviving) (C57BL/6J mice [3]; Day 8, 2 × 10^5 cells): 2
Mouse survival (number surviving) (C57BL/6J mice [3]; Day 8, 5 × 10^5 cells): 2
Mouse survival (number surviving) (C57BL/6J mice [3]; Day 9, 2 × 10^5 cells): 2
Mouse survival (number surviving) (C57BL/6J mice [3]; Day 9, 5 × 10^5 cells): 2
Mouse survival (number surviving) (C57BL/6J mice [3]; Day 10, 2 × 10^5 cells): 2
Mouse survival (number surviving) (C57BL/6J mice [3]; Day 10, 5 × 10^5 cells): 2
Mouse survival (number surviving) (C57BL/6J mice [3]; Day 11, 2 × 10^5 cells): 2
Mouse survival (number surviving) (C57BL/6J mice [3]; Day 11, 5 × 10^5 cells): 2
Mouse survival (number surviving) (C57BL/6J mice [3]; Day 12, 2 × 10^5 cells): 1
Mouse survival (number surviving) (C57BL/6J mice [3]; Day 12, 5 × 10^5 cells): 2
Mouse survival (number surviving) (C57BL/6J mice [3]; Day 13, 2 × 10^5 cells): 0
Mouse survival (number surviving) (C57BL/6J mice [3]; Day 13, 5 × 10^5 cells): 2
induction of SCF (SCF; CD45(−) bone marrow stromal cells): greater than 4 fold
induction in RNA expression of SCF (SCF; bone marrow SKL cells): 3 fold
increase in number of bone marrow derived colonies (bone marrow): approximately 50%
Hepatocyte stability (Hepatocyte stability): Stable > couple hrs
